Legend:
[1] = molecular target: GAT-1 E16X (Rattus norvegicus, UniProt P23978); assay: 3H GABA uptake, corrected iPSC astrocytes transfected with GAT-1^YFP cDNA; assay type: cell-based; set-up: The coding region of rGAT-1 was inserted into pEYFP-C1 (Clontech, Palo Alto, CA); expressed in transfected cells; host or cells: human astrocytes differentiated from CRISPR-corrected patient iPSCs; conditions: 2 mM PBA, 24 hrs
Procedure: (§1) Live images of human neural progenitor cells (NPCs), astrocytes and GABAergic inhibitory neurons differentiated from the human induced pluripotent stem cells (iPSCs) on the day of experiment. […] The DMSO treated corrected or patient cells was taken as 1. […] GABA flux was measured after 30 min transport at room temperature. The influx of GABA, expressed in pmol/μg protein/min, was averaged from duplicates for each condition and for each transfection. The average counting was DMSO treated condition taken as 1. In FIG. 5B, FIG. 5D and FIG. 5F, 966 stands for CI-966 (50 μM) and 711 stands for NNC-711 (35 μM) that was applied 30 min to the astrocytes transfected with the wildtype GAT-1^YFP before preincubation and removed during preincubation. In FIGS. 5B and D, ***p<0.001 vs. corrected DMSO treated. § § <0.01, § § § p<0.001 vs. patient DMSO treated. […] In FIGS. 5B-E, n=4-8 batches of cells. In FIG. 5F, n=4-5 different transfections). Unpaired t test was used for FIG. 5C and FIG. 5E. […] Values were expressed as mean±S.E.M.). […]
(§2) Briefly, cells were cultured in […] dishes for 3 days before the GABA uptake experiment in DMEM with 10% fetal bovine serum and 1% penicillin/streptomycin. […] Glacial acetic acid was added, and lysates were then determined on a liquid scintillator with QuantaSmart. […]

[2] = molecular target: GAT-1 L460R (Rattus norvegicus, UniProt P23978, L460R); assay: as above; assay type: cell-based; set-up: The coding region of rGAT-1 was inserted into pEYFP-C1 (Clontech, Palo Alto, CA); expressed in transfected cells; host or cells: human astrocytes differentiated from CRISPR-corrected patient iPSCs; conditions: 2 mM PBA, 24 hrs
Procedure: as §1, §2

GABA uptake normalized to its DMSO treated [1]: 1.182±0.025
GABA uptake normalized to its DMSO treated [2]: 1.18±0.045
SMILES: O=C(O)CCCc1ccccc1 [PBA, 4-phenylbutyric acid]

From patent US20260144769A1, “4-PHENYLBUTYRATE RESTORED GABA UPTAKE AND REDUCED SEIZURES IN SLC6A1 VARIANT-MEDIATED DISORDERS” (Vanderbilt University, priority 2022, published 2026)
